Data on 2 substances can be found in patent US20240189490A1, “ANTIMICROBIAL ELUTING AIRWAY DEVICES” (priority 2021, published 2024).

No end group written: not given here.

A short description of series [1]: Release of loaded protein or peptide from coated ET tubes in PBS. The series is classed as physicochemical. The procedure:
Release Quantification. Release of loaded protein or peptide from ET tubes was achieved from quartered tube segments in PBS at 37° C. while shaking at 100 rpm. FITC-BSA elution and PLGA degradation samples were obtained by completely removing the supernatant and adding fresh PBS to each well. […] PLGA degradation was quantified via EnzyFluo L-Lactate Assay Kit (Bioassay Systems). Peptide release was quantified via Pierce Quantitative Fluorometric Peptide Assay (Thermo Scientific).

The subject of series [2] is Staphylococcus epidermidis. Briefly: Crystal violet biofilm assay on ET tubes. Format: cell-based. The following applies: 24 hours, 1×MIC/PLGA vs uncoated, 0.5×MIC/PLGA, free peptide vs 1×MIC/PLGA p<0.0001. The procedure: (§1) Bacteria Culture. Staphylococcus epidermidis (Winslow and Winslow) Evans (ATCC 13990) was cultured in nutrient broth aerobically at 37° C. Streptococcus pneumoniae (Klein) Chester (NCTC 7465; ATCC 33400) was cultured in Brain Heart Infusion Broth and plated on Trypticase soy agar with 5% defibrinated sheep blood (Colorado Serum Co.) aerobically (5% CO2) at 37° C.
(§2) Antibacterial Activity Assay.

Series [3] relates to S. epidermidis. Briefly: Minimum inhibitory concentration (MIC) of Lasio. Format: cell-based, Staphylococcus epidermidis. Further details: unit not given here. The following applies: data not shown. The procedure:
as §1, §2

The test system of series [4] is patient derived laryngotracheal fibroblasts.
Method: Peptide/PLGA coated tubes and controls were first submerged in Fluorobrite DMEM supplemented with 10% FBS, 2% Anti-Anti, 1% MEM NEAA, and incubated for 24 hours at 37° ° C. while shaking at 100 rpm to achieve release. Simultaneously, laryngotracheal fibroblasts were seeded at 7,000 cells/well in 48 well plates and allowed to adhere overnight in a culture atmosphere at 37° C., 95% relative humidity, and 5% CO2. Cell media was replaced with appropriate tube releasate and incubated for 24 hours in the culture atmosphere. Invitrogen AlamarBlue HS Cell Viability Reagent (ThermoFisher Scientific) was used to quantify viability.
The test system of series [5] is Staphylococcus epidermidis. Briefly: Adherent bacterial viability on ET tubes (colony counts). The series is classed as cell-based. As to conditions: 24 hours, 1×MIC/PLGA vs uncoated, 0.5×MIC/PLGA p<0.0001, free peptide vs 1×MIC/PLGA p=0.0015. The procedure:
as §1, §2

As to A4K14-citropin 1.1, the linear release rate in series [1] (mouse sized tube loaded with 17.04 μg peptide, over 9 days) was 0.397 µg/day. For the same substance, the encapsulated peptide released in series [1] (mouse sized tube, by day 9) is on record as ~80%.
Consider “VNWKKILGKIIKVVK-NH2 (C-terminus assumed) [Lasio, Lasioglossin-III]”, for which the viability amounted to 62.3%. Moreover, in series [2], the “adherent bacterial populations (crystal violet biofilm assay)” value is recorded as “significant reduction in adherent bacteria”. Further, in series [3], the minimum inhibitory concentration is reported as 1.25. The linear release in series [1] (from PLGA coated ET tubes, PBS at 37° C. shaking at 100 rpm, after initial burst release) was found to be 0.28 µg/day. For the same substance, the “cytotoxicity toward human patient-derived laryngotracheal fibroblasts” value in series [4] is given as “not cytotoxic”. Also, the “viability of adherent bacteria” value in series [5] is listed as “inhibited the viability of adherent bacteria”.

For orientation: viability means a per cent measure of how many cells are alive, often set against a control.
